Measured values published in patent US7638140B2, “Adhesive mixture for transdermal delivery of highly plasticizing drugs” (priority 1997, dated 2009).
Where a name gives a salt, the structure may show the parent alone.

Key:
pH = type: physicochemical
[1] = free base form of the drug named as HCl salt; cited from earlier work

## C#CCN(C)[C@H](C)Cc1ccccc1 [Selegiline free base, selegiline]
Solubility in water
  solubility in water: only sparingly soluble in water

## CCN(CC)CC [Triethylamine]
pH
  calculated pH: approximately 13.7
  measured pH: approximately 11.7

## phenylpropranolol-HCl
pH; free base form
  pH of the free base form: approximately 13

## Clc1cccc(Cl)c1N=C1NCCN1 [clonidine-HCl]
[1]
  pKb of the free base form: 7

## C#CCN(C)[C@H](C)Cc1ccccc1 [selegiline-HCl]
Solubility in water
  solubility in water: readily soluble in water
